From ChEMBL document CHEMBL3885881, “DrugMatrix”

Organism: Rattus norvegicus
Experiment: DrugMatrix - Regimen: Daily Repeat
Format: toxicity, organism-based, Sprague-Dawley
Design: regimen Daily Repeat, gender Male, age 6-8 weeks
Conditions: in vivo, po, route oral GAVAGE, vehicle 100 % WATER; for ABSOLUTE BASOPHIL / ABSOLUTE EOSINOPHIL / ABSOLUTE LYMPHOCYTE / ABSOLUTE MONOCYTE / ABSOLUTE SEGMENTED NEUTROPHIL / BASOPHIL / EOSINOPHIL / ERYTHROCYTE COUNT / HEMATOCRIT / HEMOGLOBIN / LEUKOCYTE COUNT / LYMPHOCYTE / MEAN CORPUSCULAR HEMOGLOBIN / MEAN CORPUSCULAR HEMOGLOBIN CONCENTRATION / MEAN CORPUSCULAR VOLUME / MONOCYTE / NEUTROPHIL / NUCLEATED RED BLOOD CELLS / PLATELET COUNT: tissue Blood; for ALANINE AMINOTRANSFERASE / ALBUMIN / ALKALINE PHOSPHATASE / ASPARTATE AMINOTRANSFERASE / BLOOD UREA NITROGEN / CARBON DIOXIDE / CHLORIDE / CHOLESTEROL / CREATINE PHOSPHOKINASE / CREATININE / GLUCOSE / LACTATE DEHYDROGENASE / LIPASE / PHOSPHORUS / POTASSIUM / SODIUM / TOTAL BILIRUBIN / TOTAL PROTEIN / URIC ACID: tissue Plasma
[1] = 0 mg/kg, 72 h, dose level Control, time 3 day
[2] = 0 mg/kg, 120 h, dose level Control, time 5 day
[3] = 27 mg/kg, 72 h, dose level Low, time 3 day

CNNCc1ccc(C(=O)NC(C)C)cc1 [PROCARBAZINE]
ABSOLUTE BASOPHIL [1]: 0 CELLS/uL | ABSOLUTE EOSINOPHIL [1]: 0 CELLS/uL | ABSOLUTE LYMPHOCYTE [1]: 7802.17 CELLS/uL | ABSOLUTE MONOCYTE [1]: 13.5 CELLS/uL | ABSOLUTE SEGMENTED NEUTROPHIL [1]: 617.67 CELLS/uL | BASOPHIL [1]: 0% | EOSINOPHIL [1]: 0% | ERYTHROCYTE COUNT [1]: 5.35 x10E6/uL | HEMATOCRIT [1]: 33.02% | HEMOGLOBIN [1]: 12.88 G/DL | LEUKOCYTE COUNT [1]: 8.43 x10E3/uL | LYMPHOCYTE [1]: 92.67% | MEAN CORPUSCULAR HEMOGLOBIN [1]: 24.12 pg | MEAN CORPUSCULAR HEMOGLOBIN CONCENTRATION [1]: 39.03 G/DL | MEAN CORPUSCULAR VOLUME [1]: 61.8 fL | MONOCYTE [1]: 0.17% | NEUTROPHIL [1]: 7.17% | NUCLEATED RED BLOOD CELLS [1]: 0 /100WBC | PLATELET COUNT [1]: 1124.83 x10E3/uL | ALANINE AMINOTRANSFERASE [1]: 54.17 u/L | ALBUMIN [1]: 4.07 G/DL | ALKALINE PHOSPHATASE [1]: 383.83 u/L | ASPARTATE AMINOTRANSFERASE [1]: 82.17 u/L | BLOOD UREA NITROGEN [1]: 13.67 mg/dL | CARBON DIOXIDE [1]: 31 mmol/L | CHLORIDE [1]: 100.83 MEQ/L | CHOLESTEROL [1]: 65.17 mg/dL | CREATINE PHOSPHOKINASE [1]: 228.33 u/L | CREATININE [1]: 0.12 mg/dL | GLUCOSE [1]: 148 mg/dL | LACTATE DEHYDROGENASE [1]: 97.83 u/L | LIPASE [1]: 9.17 u/L | PHOSPHORUS [1]: 9.75 mg/dL | POTASSIUM [1]: 5.85 MEQ/L | SODIUM [1]: 147.02 MEQ/L | TOTAL BILIRUBIN [1]: 0.18 mg/dL | TOTAL PROTEIN [1]: 6.1 G/DL | URIC ACID [1]: 0.5 mg/dL | ABSOLUTE BASOPHIL [2]: 0 CELLS/uL | ABSOLUTE EOSINOPHIL [2]: 0 CELLS/uL | ABSOLUTE LYMPHOCYTE [2]: 10538 CELLS/uL | ABSOLUTE MONOCYTE [2]: 15.83 CELLS/uL | ABSOLUTE SEGMENTED NEUTROPHIL [2]: 762.83 CELLS/uL | BASOPHIL [2]: 0% | EOSINOPHIL [2]: 0% | ERYTHROCYTE COUNT [2]: 5.49 x10E6/uL | HEMATOCRIT [2]: 34.63% | HEMOGLOBIN [2]: 13.72 G/DL | LEUKOCYTE COUNT [2]: 11.32 x10E3/uL | LYMPHOCYTE [2]: 92.67% | MEAN CORPUSCULAR HEMOGLOBIN [2]: 24.97 pg | MEAN CORPUSCULAR HEMOGLOBIN CONCENTRATION [2]: 39.57 G/DL | MEAN CORPUSCULAR VOLUME [2]: 63.05 fL | MONOCYTE [2]: 0.17% | NEUTROPHIL [2]: 7.17% | NUCLEATED RED BLOOD CELLS [2]: 0.17 /100WBC | PLATELET COUNT [2]: 802 x10E3/uL | ALANINE AMINOTRANSFERASE [2]: 50.5 u/L | ALBUMIN [2]: 4.07 G/DL | ALKALINE PHOSPHATASE [2]: 336.83 u/L | ASPARTATE AMINOTRANSFERASE [2]: 81 u/L | BLOOD UREA NITROGEN [2]: 14.17 mg/dL | CARBON DIOXIDE [2]: 32 mmol/L | CHLORIDE [2]: 98.33 MEQ/L | CHOLESTEROL [2]: 69.17 mg/dL | CREATINE PHOSPHOKINASE [2]: 253.33 u/L | CREATININE [2]: 0.13 mg/dL | GLUCOSE [2]: 153.67 mg/dL | LACTATE DEHYDROGENASE [2]: 157 u/L | LIPASE [2]: 9 u/L | PHOSPHORUS [2]: 10.78 mg/dL | POTASSIUM [2]: 6.11 MEQ/L | SODIUM [2]: 144.57 MEQ/L | TOTAL BILIRUBIN [2]: 0.15 mg/dL | TOTAL PROTEIN [2]: 6.05 G/DL | URIC ACID [2]: 0.73 mg/dL | ABSOLUTE BASOPHIL [3]: 0 CELLS/uL | ABSOLUTE EOSINOPHIL [3]: 0 CELLS/uL | ABSOLUTE LYMPHOCYTE [3]: 5898 CELLS/uL | ABSOLUTE MONOCYTE [3]: 47.67 CELLS/uL | ABSOLUTE SEGMENTED NEUTROPHIL [3]: 121 CELLS/uL | BASOPHIL [3]: 0% | EOSINOPHIL [3]: 0% | ERYTHROCYTE COUNT [3]: 5.61 x10E6/uL | HEMATOCRIT [3]: 35.4% | HEMOGLOBIN [3]: 13.53 G/DL | LEUKOCYTE COUNT [3]: 6.07 x10E3/uL | LYMPHOCYTE [3]: 97% | MEAN CORPUSCULAR HEMOGLOBIN [3]: 24.13 pg | MEAN CORPUSCULAR HEMOGLOBIN CONCENTRATION [3]: 38.2 G/DL | MEAN CORPUSCULAR VOLUME [3]: 63.1 fL | MONOCYTE [3]: 1% | NEUTROPHIL [3]: 2% | NUCLEATED RED BLOOD CELLS [3]: 0 /100WBC | PLATELET COUNT [3]: 1005 x10E3/uL | ALANINE AMINOTRANSFERASE [3]: 73.33 u/L | ALBUMIN [3]: 4.33 G/DL | ALKALINE PHOSPHATASE [3]: 429.33 u/L | ASPARTATE AMINOTRANSFERASE [3]: 103.33 u/L | BLOOD UREA NITROGEN [3]: 13.67 mg/dL | CARBON DIOXIDE [3]: 31.67 mmol/L | CHLORIDE [3]: 97.5 MEQ/L | CHOLESTEROL [3]: 76.33 mg/dL | CREATINE PHOSPHOKINASE [3]: 504 u/L | CREATININE [3]: 0.1 mg/dL | GLUCOSE [3]: 139.67 mg/dL | LACTATE DEHYDROGENASE [3]: 137.67 u/L | LIPASE [3]: 11.67 u/L | PHOSPHORUS [3]: 9.73 mg/dL | POTASSIUM [3]: 5.46 MEQ/L | SODIUM [3]: 144.3 MEQ/L | TOTAL BILIRUBIN [3]: 0.13 mg/dL | TOTAL PROTEIN [3]: 6.27 G/DL | URIC ACID [3]: 0.57 mg/dL
